Patent US20250213542A1, “DEVICES AND METHODS FOR DELIVERING SYNERGISTIC ACTIVE AGENTS TO TARGET SITES” (IRRIMAX Corporation, priority 2023, published 2025)
Where a name gives a salt, the structure may show the parent alone. Read-outs that look alike come from different tables or passages of the source.

Columns and labels:
Format in all cases: cell-based
E. coli (ATCC BAA 1427) [1] = experiment: Minimal bactericidal concentration determination, serial 2-fold dilution; conditions: E. coli (ATCC BAA 1427); for Number of Colonies: average of triplicate
Description: (§1) The minimal bactericidal concentration (MBC) of octenidine dihydrochloride was determined against S. aureus (ATCC 6538), P. aeruginosa (ATCC 15442), and E. coli (ATCC BAA 1427) by serial 2-fold dilution experiments. A solution of chlorhexidine (0.025% w/w) was used as a positive control and comparator.

S. aureus (ATCC 6538) [2] = experiment: as above; conditions: for Number of Colonies: average of triplicate
Description: as §1

[3] = test system: P. aeruginosa (ATCC 15442); experiment: as above; conditions: for Number of Colonies: average of triplicate
Description: as §1

E. coli = experiment: Chequerboard assay, FIC and synergy analysis; conditions: Escherichia coli
Description: (§2) Chlorhexidine gluconate (CHG) and octenidine dihydrochloride (OCT) were analyzed by chequerboard assay with each test organism to determine potential additive, synergistic, and antagonistic activity. The test organisms S. aureus, P. aeruginosa, and E. coli were tested at ranges of chlorhexidine gluconate (0.122-15.625 μg/ml, 1.25-160 μg/ml, and 0.125-16 μg/ml, respectively) and octenidine dihydrochloride (0.029-3.75 μg/mL, 0.029-3.75 μg/mL, and 0.029-3.75 μg/mL, respectively). FIC was calculated by the following Equation 2: […]

P. aeruginosa = experiment: Chequerboard assay, FIC and synergy analysis; conditions: Pseudomonas aeruginosa, P. aeruginosa, chequerboard
Description: as §2

S. aureus = experiment: Chequerboard assay, FIC and synergy analysis; conditions: Staphylococcus aureus
Description: as §2

E. coli (ATCC BAA 1427) [4] = experiment: Minimum inhibitory concentration determination, serial 2-fold dilution; conditions: Escherichia coli
Description: as §1, with “inhibitory” for “bactericidal”, “(MIC, the minimum inhibitory concentration required for 90% growth reduction)” for “(MBC)”, “octenidine” for “octenidine dihydrochloride”

S. aureus (ATCC 6538) [5] = experiment: as above; conditions: Staphylococcus aureus, ATCC6538, S. aureus (ATCC 6538)
Description: as §1, with “inhibitory” for “bactericidal”, “(MIC, the minimum inhibitory concentration required for 90% growth reduction)” for “(MBC)”, “octenidine” for “octenidine dihydrochloride”

[6] = test system: P. aeruginosa (ATCC 15442); experiment: as above; conditions: Pseudomonas aeruginosa, ATCC15442, P. aeruginosa (ATCC 15442)
Description: as §1, with “inhibitory” for “bactericidal”, “(MIC, the minimum inhibitory concentration required for 90% growth reduction)” for “(MBC)”, “octenidine” for “octenidine dihydrochloride”

[7] = in presence of CHG, read-out: MIC of OCT in Presence of CHG
[8] = 0.46875 μg/mL, read-out: Average Growth Inhibition (%)
[9] = 0.9375 μg/mL, read-out: Average Growth Inhibition (%)
[10] = 1.875 μg/mL, read-out: Average Growth Inhibition (%)
[11] = 3.75 μg/mL, read-out: Average Growth Inhibition (%)
[12] = 7.5 μg/mL, read-out: Average Growth Inhibition (%)
[13] = 15 μg/mL, read-out: Average Growth Inhibition (%)
[14] = 30 μg/mL, read-out: Average Growth Inhibition (%)
[15] = 60 μg/mL, read-out: Average Growth Inhibition (%)
[16] = read-out: MIC (inhibited greater than 90% growth)

CCCCCCCCN=c1ccn(CCCCCCCCCCn2ccc(=NCCCCCCCC)cc2)cc1 [Octenidine dihydrochloride, 1-Octanamine, N,N′-(1,10-decanediyldi-1(4H)-pyridinyl-4-ylidene)bis-]
CFU/mL (E. coli (ATCC BAA 1427) [1]; 0.46875 μg/mL): Lawn (‘Lawn’indicates too many colonies to accurately count (e.g., greater than 250 colonies on an agar plate))
Number of Colonies (E. coli (ATCC BAA 1427) [1]; 0.46875 μg/mL): Lawn (‘Lawn’indicates too many colonies to accurately count (e.g., greater than 250 colonies on an agar plate))
CFU/mL (E. coli (ATCC BAA 1427) [1]; 0.9375 μg/mL): Lawn (‘Lawn’indicates too many colonies to accurately count (e.g., greater than 250 colonies on an agar plate))
Number of Colonies (E. coli (ATCC BAA 1427) [1]; 0.9375 μg/mL): Lawn (‘Lawn’indicates too many colonies to accurately count (e.g., greater than 250 colonies on an agar plate))
CFU/mL (E. coli (ATCC BAA 1427) [1]; 1.875 μg/mL): 0 CFU/mL
Number of Colonies (E. coli (ATCC BAA 1427) [1]; 1.875 μg/mL): 0
CFU/mL (E. coli (ATCC BAA 1427) [1]; 3.75 μg/mL): 0 CFU/mL
Number of Colonies (E. coli (ATCC BAA 1427) [1]; 3.75 μg/mL): 0
CFU/mL (E. coli (ATCC BAA 1427) [1]; 7.5 μg/mL): 0 CFU/mL
Number of Colonies (E. coli (ATCC BAA 1427) [1]; 7.5 μg/mL): 0
CFU/mL (E. coli (ATCC BAA 1427) [1]; 15 μg/mL): 0 CFU/mL
Number of Colonies (E. coli (ATCC BAA 1427) [1]; 15 μg/mL): 0
CFU/mL (E. coli (ATCC BAA 1427) [1]; 30 μg/mL): 0 CFU/mL
Number of Colonies (E. coli (ATCC BAA 1427) [1]; 30 μg/mL): 0
CFU/mL (E. coli (ATCC BAA 1427) [1]; 60 μg/mL): 0 CFU/mL
Number of Colonies (E. coli (ATCC BAA 1427) [1]; 60 μg/mL): 0
MBC (E. coli (ATCC BAA 1427) [1]; Escherichia coli, BAA1427, read-out: MBC (concentration having less than 500 CFU/mL)): 1.88 µg/mL
CFU/mL (S. aureus (ATCC 6538) [2]; 0.46875 μg/mL): Lawn (‘Lawn’indicates too many colonies to accurately count (e.g., greater than 250 colonies on an agar plate))
Number of Colonies (S. aureus (ATCC 6538) [2]; 0.46875 μg/mL): Lawn (‘Lawn’indicates too many colonies to accurately count (e.g., greater than 250 colonies on an agar plate))
CFU/mL (S. aureus (ATCC 6538) [2]; 0.9375 μg/mL): 0 CFU/mL
Number of Colonies (S. aureus (ATCC 6538) [2]; 0.9375 μg/mL): 0
CFU/mL (S. aureus (ATCC 6538) [2]; 1.875 μg/mL): 0 CFU/mL
Number of Colonies (S. aureus (ATCC 6538) [2]; 1.875 μg/mL): 0
CFU/mL (S. aureus (ATCC 6538) [2]; 3.75 μg/mL): 566.67 CFU/mL
Number of Colonies (S. aureus (ATCC 6538) [2]; 3.75 μg/mL): 5.6667
CFU/mL (S. aureus (ATCC 6538) [2]; 7.5 μg/mL): 0 CFU/mL
Number of Colonies (S. aureus (ATCC 6538) [2]; 7.5 μg/mL): 0
CFU/mL (S. aureus (ATCC 6538) [2]; 15 μg/mL): 0 CFU/mL
Number of Colonies (S. aureus (ATCC 6538) [2]; 15 μg/mL): 0
CFU/mL (S. aureus (ATCC 6538) [2]; 30 μg/mL): 0 CFU/mL
Number of Colonies (S. aureus (ATCC 6538) [2]; 30 μg/mL): 0
CFU/mL (S. aureus (ATCC 6538) [2]; 60 μg/mL): 0 CFU/mL
Number of Colonies (S. aureus (ATCC 6538) [2]; 60 μg/mL): 0
MBC (S. aureus (ATCC 6538) [2]; Staphylococcus aureus, ATCC6538, read-out: MBC (concentration having less than 500 CFU/mL)): 0.938 µg/mL
CFU/mL ([3]; 0.46875 μg/mL): Lawn (‘Lawn’indicates too many colonies to accurately count (e.g., greater than 250 colonies on an agar plate))
Number of Colonies ([3]; 0.46875 μg/mL): Lawn (‘Lawn’indicates too many colonies to accurately count (e.g., greater than 250 colonies on an agar plate))
CFU/mL ([3]; 0.9375 μg/mL): Lawn (‘Lawn’indicates too many colonies to accurately count (e.g., greater than 250 colonies on an agar plate))
Number of Colonies ([3]; 0.9375 μg/mL): Lawn (‘Lawn’indicates too many colonies to accurately count (e.g., greater than 250 colonies on an agar plate))
CFU/mL ([3]; 1.875 μg/mL): 966.67 CFU/mL
Number of Colonies ([3]; 1.875 μg/mL): 9.667
CFU/mL ([3]; 3.75 μg/mL): 0 CFU/mL
Number of Colonies ([3]; 3.75 μg/mL): 0
CFU/mL ([3]; 7.5 μg/mL): 0 CFU/mL
Number of Colonies ([3]; 7.5 μg/mL): 0
CFU/mL ([3]; 15 μg/mL): 0 CFU/mL
Number of Colonies ([3]; 15 μg/mL): 0
CFU/mL ([3]; 30 μg/mL): 0 CFU/mL
Number of Colonies ([3]; 30 μg/mL): 0
CFU/mL ([3]; 60 μg/mL): 0 CFU/mL
Number of Colonies ([3]; 60 μg/mL): 0
MBC ([3]; Pseudomonas aeruginosa, ATCC15442, read-out: MBC (concentration having less than 500 CFU/mL)): 3.75 µg/mL
MIC (E. coli; [7]): 0.029 µg/mL
MIC (E. coli; read-out: MIC of OCT Alone): 1.88 µg/mL
MIC (P. aeruginosa; [7]): 0.938 µg/mL
MIC (P. aeruginosa; read-out: MIC of OCT Alone): 1.88 µg/mL
MIC (S. aureus; [7]): 0.234 µg/mL
MIC (S. aureus; read-out: MIC of OCT Alone): 0.938 µg/mL
inhibition at 0.46875 µg/mL (E. coli (ATCC BAA 1427) [4]; BAA1427, 0.46875 μg/mL, read-out: Average Growth Inhibition (%)): 6%
inhibition at 0.9375 µg/mL (E. coli (ATCC BAA 1427) [4]; BAA1427, 0.9375 μg/mL, read-out: Average Growth Inhibition (%)): 12%
inhibition at 1.875 µg/mL (E. coli (ATCC BAA 1427) [4]; BAA1427, 1.875 μg/mL, read-out: Average Growth Inhibition (%)): 100%
inhibition at 3.75 µg/mL (E. coli (ATCC BAA 1427) [4]; BAA1427, 3.75 μg/mL, read-out: Average Growth Inhibition (%)): 100%
inhibition at 7.5 µg/mL (E. coli (ATCC BAA 1427) [4]; BAA1427, 7.5 μg/mL, read-out: Average Growth Inhibition (%)): 100%
inhibition at 15 µg/mL (E. coli (ATCC BAA 1427) [4]; BAA1427, 15 μg/mL, read-out: Average Growth Inhibition (%)): 99%
inhibition at 30 µg/mL (E. coli (ATCC BAA 1427) [4]; BAA1427, 30 μg/mL, read-out: Average Growth Inhibition (%)): 97%
inhibition at 60 µg/mL (E. coli (ATCC BAA 1427) [4]; BAA1427, 60 μg/mL, read-out: Average Growth Inhibition (%)): 91%
MIC (E. coli (ATCC BAA 1427) [4]; BAA1427, read-out: MIC (inhibited greater than 90% growth)): 1.88 µg/mL
inhibition at 0.46875 µg/mL (S. aureus (ATCC 6538) [5]; [8]): 50%
inhibition at 0.9375 µg/mL (S. aureus (ATCC 6538) [5]; [9]): 101%
inhibition at 1.875 µg/mL (S. aureus (ATCC 6538) [5]; [10]): 101%
inhibition at 3.75 µg/mL (S. aureus (ATCC 6538) [5]; [11]): 101%
inhibition at 7.5 µg/mL (S. aureus (ATCC 6538) [5]; [12]): 98%
inhibition at 15 µg/mL (S. aureus (ATCC 6538) [5]; [13]): 97%
inhibition at 30 µg/mL (S. aureus (ATCC 6538) [5]; [14]): 92%
inhibition at 60 µg/mL (S. aureus (ATCC 6538) [5]; [15]): 73%
MIC (S. aureus (ATCC 6538) [5]; [16]): 0.938 µg/mL
inhibition at 0.46875 µg/mL [6, 8]: 2%
inhibition at 0.9375 µg/mL [6, 9]: 4%
inhibition at 1.875 µg/mL [6, 10]: 100%
inhibition at 3.75 µg/mL [6, 11]: 100%
inhibition at 7.5 µg/mL [6, 12]: 100%
inhibition at 15 µg/mL [6, 13]: 99%
inhibition at 30 µg/mL [6, 14]: 97%
inhibition at 60 µg/mL [6, 15]: 91%
MIC [6, 16]: 1.88 µg/mL
